{"source": "DBAASP", "test_in_all_cases": "≥ marks a high value that may be exact or a test limit, other limits are often not marked, values filed in µg/mL are converted to µM", "key": {"Staphylococcus aureus": {"tested_on": "Staphylococcus aureus"}, "Streptococcus sanguinis": {"tested_on": "Streptococcus sanguinis"}, "[1]": {"tested_on": "Candida albicans ATCC 90028"}, "[2]": {"tested_on": "Candida glabrata ATCC 90030"}, "Candida krusei ATCC 6258": {"tested_on": "Candida krusei ATCC 6258"}, "[3]": {"tested_on": "Enterobacter cloacae ATCC 13047"}, "[4]": {"tested_on": "Enterococcus faecalis ATCC 4028"}, "[5]": {"tested_on": "Escherichia coli ATCC 25922"}, "[6]": {"tested_on": "Pseudomonas aeruginosa ATCC 27853"}, "[7]": {"tested_on": "Staphylococcus aureus ATCC 29213"}, "[8]": {"tested_on": "Staphylococcus epidermidis ATCC 12228"}, "[9]": {"tested_on": "Aeromonas salmonicida CIP 103209T"}, "[10]": {"tested_on": "Enterococcus faecalis CIP 76.117"}, "[11]": {"tested_on": "Escherichia coli CIP 54.8T"}, "[12]": {"tested_on": "Listeria monocytogenes CIP 110871"}, "[13]": {"tested_on": "Staphylococcus aureus CIP 53.156"}, "[14]": {"tested_on": "Vibrio vulnificus CIP 109783"}, "[15]": {"tested_on": "Acinetobacter baumannii KCTC 2508"}, "[16]": {"tested_on": "Klebsiella pneumoniae KCTC 2208"}, "[17]": {"tested_on": "Escherichia coli BNCC 133264"}, "Escherichia coli": {"tested_on": "Escherichia coli"}, "Klebsiella pneumoniae": {"tested_on": "Klebsiella pneumoniae"}, "Listeria monocytogenes": {"tested_on": "Listeria monocytogenes"}, "[18]": {"tested_on": "Pseudomonas aeruginosa BNCC 125486"}, "[19]": {"tested_on": "Staphylococcus aureus ATCC 25923"}, "[20]": {"tested_on": "Staphylococcus aureus BNCC 186335"}, "[21]": {"tested_on": "Bacillus cereus ATCC 10876"}, "[22]": {"tested_on": "Enterococcus faecalis ATCC 29212"}, "[23]": {"tested_on": "Salmonella enterica subsp. enterica serovar Typhimurium ATCC 14028"}, "[24]": {"tested_on": "Staphylococcus aureus ATCC 6538"}, "[25]": {"tested_on": "Streptococcus agalactiae ATCC 27956"}, "[26]": {"tested_on": "Streptococcus dysgalactiae subsp. dysgalactiae ATCC 27957"}, "[27]": {"tested_on": "Streptococcus equi subsp. zooepidemicus ATCC 43079"}, "[28]": {"tested_on": "Streptococcus iniae KCTC 3657"}, "Aeromonas hydrophila": {"tested_on": "Aeromonas hydrophila"}, "Streptococcus pyogenes": {"tested_on": "Streptococcus pyogenes"}, "Vibrio alginolyticus": {"tested_on": "Vibrio alginolyticus"}, "Vibrio fluvialis": {"tested_on": "Vibrio fluvialis"}, "Vibrio parahaemolyticus": {"tested_on": "Vibrio parahaemolyticus"}}, "data": [{"smiles": "NC(=O)[C@H](Cc1ccccc1)NC(=O)[C@H](Cc1ccccc1)NC(=O)[C@H](Cc1ccccc1)NC(=O)[C@H](Cc1ccccc1)NC(=O)[C@@H](N)Cc1ccccc1", "note": "[FFFFF]", "values": [{"measurement": "MIC", "setting": "Staphylococcus aureus", "value": 33.8, "unit": "µM"}, {"measurement": "MIC", "setting": "Streptococcus sanguinis", "value": "≥ 36.3", "unit": "µM"}]}, {"smiles": "CC[C@H](C)[C@H](NC(=O)[C@H](CC(C)C)NC(=O)CNC(=O)[C@H](CCCCN)NC(=O)[C@@H](NC(=O)[C@H](CC(C)C)NC(=O)[C@H](CCCCN)NC(=O)[C@@H]1CCCN1C(=O)[C@@H](NC(=O)[C@H](CC(C)C)NC(=O)[C@H](CCCCN)NC(=O)[C@H](Cc1ccccc1)NC(=O)[C@@H](N)Cc1ccccc1)[C@@H](C)CC)C(C)C)C(=O)N[C@@H](CO)C(=O)N[C@@H](C)C(=O)N[C@@H](Cc1ccccc1)C(=O)N[C@@H](CCCCN)C(N)=O", "note": "[FFKLIPKLVKGLISAFK]", "values": [{"measurement": "MIC", "setting": "[1]", "value": 4.69, "unit": "µM"}, {"measurement": "MIC", "setting": "[2]", "value": 9.38, "unit": "µM"}, {"measurement": "MIC", "setting": "Candida krusei ATCC 6258", "value": 9.38, "unit": "µM"}, {"measurement": "MIC", "setting": "[3]", "value": 9.38, "unit": "µM"}, {"measurement": "MIC", "setting": "[4]", "value": 1.17, "unit": "µM"}, {"measurement": "MIC", "setting": "[5]", "value": 2.34, "unit": "µM"}, {"measurement": "MIC", "setting": "[6]", "value": 1.17, "unit": "µM"}, {"measurement": "MIC", "setting": "[7]", "value": 2.34, "unit": "µM"}, {"measurement": "MIC", "setting": "[8]", "value": 9.38, "unit": "µM"}]}, {"smiles": "CC[C@H](C)[C@H](NC(=O)[C@H](CC(C)C)NC(=O)[C@H](CC(=O)O)NC(=O)[C@H](Cc1cnc[nH]1)NC(=O)[C@@H](NC(=O)[C@H](CO)NC(=O)[C@H](CCCCN)NC(=O)CNC(=O)[C@@H](NC(=O)[C@H](Cc1cnc[nH]1)NC(=O)[C@H](Cc1ccccc1)NC(=O)[C@H](CC(C)C)NC(=O)CNC(=O)CNC(=O)[C@@H](NC(=O)[C@@H](NC(=O)[C@H](Cc1cnc[nH]1)NC(=O)[C@H](Cc1cnc[nH]1)NC(=O)[C@@H](NC(=O)[C@@H](N)Cc1ccccc1)[C@@H](C)CC)[C@@H](C)CC)[C@@H](C)CC)C(C)C)[C@@H](C)CC)C(=O)N[C@@H](CCCN=C(N)N)C(=O)O", "note": "[FIHHIIGGLFHVGKSIHDLIR]", "values": [{"measurement": "MIC", "setting": "[9]", "value": 7.07, "unit": "µM"}, {"measurement": "MIC", "setting": "[10]", "value": 15.8, "unit": "µM"}, {"measurement": "MIC", "setting": "[11]", "value": 15.8, "unit": "µM"}, {"measurement": "MIC", "setting": "[12]", "value": 15.8, "unit": "µM"}, {"measurement": "MIC", "setting": "[13]", "value": 7.07, "unit": "µM"}, {"measurement": "MIC", "setting": "[14]", "value": "≥ 35.4", "unit": "µM"}]}, {"smiles": "CC[C@H](C)[C@H](N)C(=O)N[C@@H](C)C(=O)N[C@@H](CCCN=C(N)N)C(=O)N[C@@H](CCCN=C(N)N)C(=O)N[C@@H](C)C(=O)N[C@@H](CC(C)C)C(=O)N[C@@H](CCCCN)C(=O)N[C@@H](C)C(=O)N[C@@H](CO)C(=O)N[C@@H](CC(C)C)C(=O)N[C@@H](CCCN=C(N)N)C(=O)N[C@@H](C)C(=O)N[C@@H](CCCN=C(N)N)C(=O)N[C@@H](Cc1cnc[nH]1)C(=O)N[C@H](C(=O)N[C@H](C(=O)N1CCC[C@H]1C(=O)N[C@@H](CCC(N)=O)C(=O)N[C@@H](CS)C(=O)N[C@@H](CCCCN)C(=O)N[C@@H](CCCCN)C(=O)N[C@@H](Cc1ccccc1)C(=O)NCC(=O)N[C@@H](CCCN=C(N)N)C(=O)N[C@@H](CCCN=C(N)N)C(N)=O)[C@@H](C)CC)[C@@H](C)O", "note": "[IARRALKASLRARHTIPQCKKFGRR]", "values": [{"measurement": "MIC", "setting": "[15]", "value": 4, "unit": "µM"}, {"measurement": "MIC", "setting": "[16]", "value": 8, "unit": "µM"}, {"measurement": "MIC", "setting": "[6]", "value": 4, "unit": "µM"}]}, {"smiles": "CC[C@H](C)[C@H](NC(=O)[C@H](CCCCN)NC(=O)[C@H](CC(N)=O)NC(=O)[C@H](CC(C)C)NC(=O)[C@@H](NC(=O)[C@H](CCCCN)NC(=O)[C@@H]1CCCN1)[C@@H](C)CC)C(=O)N[C@@H](CC(C)C)C(=O)NCC(=O)N[C@@H](CCCCN)C(=O)N[C@H](C(=O)N[C@@H](CC(C)C)C(=O)N[C@@H](CCCN=C(N)N)C(=O)N[C@@H](CC(C)C)C(=O)N[C@@H](C)C(=O)N[C@@H](C)C(=O)N[C@@H](C)C(=O)N[C@@H](Cc1ccccc1)C(=O)N[C@@H](CCCCN)C(N)=O)[C@@H](C)CC", "note": "[PKILNKILGKILRLAAAFK]", "values": [{"measurement": "MIC", "setting": "[5]", "value": 1.5, "unit": "µM"}, {"measurement": "MIC", "setting": "[17]", "value": 1.9, "unit": "µM"}, {"measurement": "MIC", "setting": "Escherichia coli", "value": 1.9, "unit": "µM"}, {"measurement": "MIC", "setting": "Klebsiella pneumoniae", "value": 6.25, "unit": "µM"}, {"measurement": "MIC", "setting": "Listeria monocytogenes", "value": 1.9, "unit": "µM"}, {"measurement": "MIC", "setting": "[6]", "value": 1.5, "unit": "µM"}, {"measurement": "MIC", "setting": "[18]", "value": 1.9, "unit": "µM"}, {"measurement": "MIC", "setting": "[19]", "value": 3, "unit": "µM"}, {"measurement": "MIC", "setting": "[20]", "value": 0.949, "unit": "µM"}]}, {"smiles": "CC[C@H](C)[C@H](NC(=O)[C@H](CCCN=C(N)N)NC(=O)[C@H](Cc1c[nH]c2ccccc12)NC(=O)CNC(=O)[C@H](Cc1ccc(O)cc1)NC(=O)[C@H](CCCN=C(N)N)NC(=O)[C@H](CCCN=C(N)N)NC(=O)[C@H](C)NC(=O)[C@H](Cc1ccccc1)NC(=O)[C@H](CCCN=C(N)N)NC(=O)CNC(=O)[C@H](C)NC(=O)CNC(=O)[C@H](CCCN=C(N)N)NC(=O)[C@@H](NC(=O)[C@H](Cc1ccccc1)NC(=O)[C@H](CCCN=C(N)N)NC(=O)[C@H](CCCN=C(N)N)NC(=O)[C@H](Cc1c[nH]c2ccccc12)NC(=O)[C@H](CCCN=C(N)N)NC(=O)[C@H](CO)NC(=O)[C@H](CCCN=C(N)N)NC(=O)[C@@H](N)[C@@H](C)O)[C@@H](C)CC)C(=O)N[C@@H](C)C(=O)O", "note": "[TRSRWRRFIRGAGRFARRYGWRIA]", "values": [{"measurement": "MIC", "setting": "[21]", "value": 3.28, "unit": "µM"}, {"measurement": "MIC", "setting": "[22]", "value": 13.1, "unit": "µM"}, {"measurement": "MIC", "setting": "[5]", "value": 0.328, "unit": "µM"}, {"measurement": "MIC", "setting": "Escherichia coli", "value": 1.54, "unit": "µM"}, {"measurement": "MIC", "setting": "Klebsiella pneumoniae", "value": 0.387, "unit": "µM"}, {"measurement": "MIC", "setting": "[6]", "value": 0.983, "unit": "µM"}, {"measurement": "MIC", "setting": "[23]", "value": 0.164, "unit": "µM"}, {"measurement": "MIC", "setting": "[7]", "value": "> 41.9", "unit": "µM"}, {"measurement": "MIC", "setting": "[24]", "value": 1.3, "unit": "µM"}, {"measurement": "MIC", "setting": "[25]", "value": 13.1, "unit": "µM"}, {"measurement": "MIC", "setting": "[26]", "value": 13.1, "unit": "µM"}, {"measurement": "MIC", "setting": "[27]", "value": 6.6, "unit": "µM"}, {"measurement": "MIC", "setting": "[28]", "value": 10.5, "unit": "µM"}]}, {"smiles": "CC[C@H](C)[C@H](NC(=O)[C@H](CCCCN)NC(=O)[C@H](Cc1cnc[nH]1)NC(=O)[C@H](CC(C)C)NC(=O)[C@H](CC(C)C)NC(=O)[C@H](Cc1ccccc1)NC(=O)[C@H](CC(N)=O)NC(=O)[C@@H](N)C(C)C)C(=O)N[C@@H](Cc1ccc(O)cc1)C(=O)NCC(=O)N[C@@H](CC(N)=O)C(=O)N[C@H](C(=O)N[C@@H](CCCN=C(N)N)C(=O)N[C@@H](Cc1ccc(O)cc1)C(=O)N[C@@H](CO)C(=O)O)[C@@H](C)CC", "note": "[VNFLLHKIYGNIRYS]", "values": [{"measurement": "MIC", "setting": "Aeromonas hydrophila", "value": 2.12, "unit": "µM"}, {"measurement": "MIC", "setting": "Escherichia coli", "value": 2.12, "unit": "µM"}, {"measurement": "MIC", "setting": "Staphylococcus aureus", "value": 34, "unit": "µM"}, {"measurement": "MIC", "setting": "Streptococcus pyogenes", "value": "≥ 34", "unit": "µM"}, {"measurement": "MIC", "setting": "Vibrio alginolyticus", "value": 2.12, "unit": "µM"}, {"measurement": "MIC", "setting": "Vibrio fluvialis", "value": "≥ 34", "unit": "µM"}, {"measurement": "MIC", "setting": "Vibrio parahaemolyticus", "value": 17, "unit": "µM"}]}]}
